Measured values published in patent US12577226B2, “Compounds for treating Huntington's disease” (PTC THERAPEUTICS, INC., priority 2019, dated 2026).
pIC50: −log10 of the molar value.

tested on: Endogenous Huntingtin Protein (capture with MW1 (expanded polyglutamine) or MAB2166 antibody); experiment: Endogenous Huntingtin Protein Assay (ELISA-based Meso Scale Discovery electrochemiluminescence assay); assay type: cell-based; settings: MSD electrochemiluminescence platform
Experimental: Compounds of Formula (I), Formula (II), or Formula (III) were tested using the Meso Scale Discovery (MSD) Assay provided in International Application No. PCT/US2016/066042, filed on Dec. 11, 2016 and claiming priority to U.S. Provisional Application U.S. 62/265,652 filed on Dec. 10, 2015, the entire contents of which are incorporated herein by reference.
The Endogenous Huntingtin Protein assay used in Example 1 was developed using the ELISA-based MSD electrochemiluminescence assay platform.
Meso Scale Discovery (MSD) 96-well or 384-well plates were coated overnight at 4° C. with MW1 (expanded polyglutamine) or MAB2166 monoclonal antibody (for capture) at a concentration of 1 μg/mL in PBS (30 μL per well). Plates were then washed three times with 300 μL wash buffer (0.05% Tween-20 in PBS) and blocked (100 μL blocking buffer; 5% BSA in PBS) for 4-5 hours at room temperature with rotational shaking and then washed three times with wash buffer.
Samples (25 μL) were transferred to the antibody-coated MSD plate and incubated overnight at 4° C. After removal of the lysates, the plate was washed three times with wash buffer, and 25 μL of #5656S (Cell signaling; rabbit monoclonal) secondary antibody (diluted to 0.25 μg/mL in 0.05% Tween-20 in blocking buffer) was added to each well and incubated with shaking for 1 Hour at room temperature. Following incubation with the secondary antibody, the wells were rinsed with wash buffer after which 25 μL of goat anti-rabbit SULFO TAG secondary detection antibody (required aspect of the MSD system) (diluted to 0.25 μg/mL in 0.05% Tween-20 in blocking buffer) was added to each well and incubated with shaking for 1 hour at room temperature. After rinsing three times with wash buffer, 150 μL of read buffer T with surfactant (MSD) were added to each empty well, and the plate was imaged on a SI 6000 imager (MSD) according to manufacturers' instructions provided for 96- or 384-well plates.

Row | pIC50 | Molecule
1 | ≥ 7.00 | CC1(C)CC(Oc2ccc(-c3ncc(-c4cn[nH]c4)cc3O)nn2)CC2(COC2)N1 (stereo not shown) [Compound 114, 2-{6-[(6,6-dimethyl-2-oxa-5-azaspiro[3.5]nonan-8-yl)oxy]pyridazin-3-yl}-5-(1H-pyrazol-4-yl)pyridin-3-ol]
2 | 6.30 to 7.00 | Cn1ccc(-c2cnc(-c3ccc(O[C@H]4CC(C)(C)NC(C)(C)[C@H]4F)nn3)c(O)c2)cc1=O (single isomer, unassigned) [Compound 37, 6-(6-{[(3R,4S)-3-fluoro-2,2,6,6-tetramethylpiperidin-4-yl]oxy}pyridazin-3-yl)-5-hydroxy-1′-methyl[3,4′-bipyridin]-2′(1′H)-one or 6-(6-{[(3S,4R)-3-fluoro-2,2,6,6-tetramethylpiperidin-4-yl]oxy}pyridazin-3-yl)-5-hydroxy-1′-methyl[3,4′-bipyridin]-2′(1′H)-one]
3 | ≥ 7.00 | 2-(3-{[(3R,4R)-3-fluoro-2,2,6,6-tetramethylpiperidin-4-yl]amino}-1,2,4-triazin-6-yl)-5-[1-(^2H3)methyl-1H-pyrazol-4-yl]pyridin-3-ol and 2-(3-{[(3S,4S)-3-fluoro-2,2,6,6-tetramethylpiperidin-4-yl]amino}-1,2,4-triazin-6-yl)-5-[1-(^2H3)methyl-1H-pyrazol-4-yl]pyridin-3-ol [Compound 140]
4 | 6.00 to 6.30 | Cc1n[nH]cc1CNc1cnc(-c2ccc(N3CCNC(C)C3)nn2)c(O)c1 (stereo not shown) [Compound 108, 2-[6-(3-methylpiperazin-1-yl)pyridazin-3-yl]-5-{[(3-methyl-1H-pyrazol-4-yl)methyl]amino}pyridin-3-ol]
5 | ≥ 7.00 | Cc1ncc(-c2cnc(-c3ccc(N4CC[C@@H](NC(C)(C)C)C4)nn3)c(O)c2)o1 [Compound 76, 2-{6-[(3R)-3-(tert-butylamino)pyrrolidin-1-yl]pyridazin-3-yl}-5-(2-methyl-1,3-oxazol-5-yl)pyridin-3-ol]
6 | 6.00 to 6.30 | Cn1cc2c(-c3cnc(-c4ccc(O[C@@H]5CC(C)(C)NC(C)(C)[C@@H]5F)nn4)c(O)c3)ccc(F)c2n1.Cn1cc2c(-c3cnc(-c4ccc(O[C@H]5CC(C)(C)NC(C)(C)[C@H]5F)nn4)c(O)c3)ccc(F)c2n1 (mixture of isomers) [Compound 58, 5-(7-fluoro-2-methyl-2H-indazol-4-yl)-2-(6-{[(3R,4S)-3-fluoro-2,2,6,6-tetramethylpiperidin-4-yl]oxy}pyridazin-3-yl)pyridin-3-ol and 5-(7-fluoro-2-methyl-2H-indazol-4-yl)-2-(6-{[(3S,4R)-3-fluoro-2,2,6,6-tetramethylpiperidin-4-yl]oxy}pyridazin-3-yl)pyridin-3-ol]
7 | 6.00 to 6.30 | Cc1cn2cc(-c3cnc(-c4ccc(N5CC6CC5CN6)nn4)c(O)c3)cnc2n1 (stereo not shown) [Compound 116, 2-[6-(2,5-diazabicyclo[2.2.1]heptan-2-yl)pyridazin-3-yl]-5-(2-methylimidazo[1,2-a]pyrimidin-6-yl)pyridin-3-ol]
8 | 6.30 to 7.00 | Oc1cc(-n2nccn2)cnc1-c1ccc(OC2CC3(CC3)NC3(CC3)C2)nn1 (stereo not shown) [Compound 73, 2-{6-[(4-azadispiro[2.1.2^5.3^3]decan-9-yl)oxy]pyridazin-3-yl}-5-(2H-1,2,3-triazol-2-yl)pyridin-3-ol]
9 | ≥ 7.00 | Cn1cc2cc(-c3cnc(-c4cnc(N5CCN[C@@H](C6CC6)C5)nn4)c(O)c3)cc(F)c2n1 [Compound 158, 2-{3-[(3S)-3-cyclopropylpiperazin-1-yl]-1,2,4-triazin-6-yl}-5-(7-fluoro-2-methyl-2H-indazol-5-yl)pyridin-3-ol]
10 | ≥ 7.00 | CN1CCN(c2ccc(-c3ncc(-c4cc(F)c5nn(C)cc5c4)cc3O)nn2)CC1 [Compound 101, 5-(7-fluoro-2-methyl-2H-indazol-5-yl)-2-[6-(4-methylpiperazin-1-yl)pyridazin-3-yl]pyridin-3-ol]
11 | ≥ 7.00 | CC(C)(C)N[C@@H]1CCN(c2ccc(-c3ncc(-n4nccn4)cc3O)nn2)C1 [Compound 24, 2-{6-[(3R)-3-(tert-butylamino)pyrrolidin-1-yl]pyridazin-3-yl}-5-(2H-1,2,3-triazol-2-yl)pyridin-3-ol]
12 | 6.30 to 7.00 | CN[C@@H]1CCN(c2ccc(-c3ncc(-c4ncco4)cc3O)nn2)C1 [Compound 80, 2-{6-[(3R)-3-(methylamino)pyrrolidin-1-yl]pyridazin-3-yl}-5-(1,3-oxazol-2-yl)pyridin-3-ol]
13 | ≥ 7.00 | CC1(C)CC(Oc2ccc(-c3ncc(-c4cn[nH]c4)cc3O)nn2)CC2(CC2)N1 (stereo not shown) [Compound 27, 2-{6-[(5,5-dimethyl-4-azaspiro[2.5]octan-7-yl)oxy]pyridazin-3-yl}-5-(1H-pyrazol-4-yl)pyridin-3-ol]
14 | 6.00 to 6.30 | CC1CN(c2ccc(-c3ncc(NCc4cccnc4)cc3O)nn2)CCN1 (stereo not shown) [Compound 110, 2-[6-(3-methylpiperazin-1-yl)pyridazin-3-yl]-5-{[(pyridin-3-yl)methyl]amino}pyridin-3-ol]
15 | ≥ 7.00 | Cc1cnc(Nc2cnc(-c3cnc(N4CCN[C@@H](C5CC5)C4)nn3)c(O)c2)cn1 [Compound 160, 2-{3-[(3S)-3-cyclopropylpiperazin-1-yl]-1,2,4-triazin-6-yl}-5-[(5-methylpyrazin-2-yl)amino]pyridin-3-ol]
16 | 6.00 to 6.30 | CN1CCN(c2ncc(-c3ncc(-c4cn[nH]c4)cc3O)nn2)CC1 [Compound 152, 2-[3-(4-methylpiperazin-1-yl)-1,2,4-triazin-6-yl]-5-(1H-pyrazol-4-yl)pyridin-3-ol]
17 | ≥ 7.00 | CC1(C)C[C@H](Oc2ccc(-c3ncc(-n4nccn4)cc3O)nn2)[C@H](F)C(C)(C)N1 (single isomer, unassigned) [Compound 11, 2-(6-{[(3R,4S)-3-fluoro-2,2,6,6-tetramethylpiperidin-4-yl]oxy}pyridazin-3-yl)-5-(2H-1,2,3-triazol-2-yl)pyridin-3-ol or 2-(6-{[(3S,4R)-3-fluoro-2,2,6,6-tetramethylpiperidin-4-yl]oxy}pyridazin-3-yl)-5-(2H-1,2,3-triazol-2-yl)pyridin-3-ol]
18 | 6.30 to 7.00 | CC1(C)CC(Oc2ccc(-c3ncc(-n4ccnn4)cc3O)nn2)CC(C)(C)N1 [Compound 63, 2-{6-[(2,2,6,6-tetramethylpiperidin-4-yl)oxy]pyridazin-3-yl}-5-(1H-1,2,3-triazol-1-yl)pyridin-3-ol]
19 | 6.30 to 7.00 | 2-(6-{[(1R,3s,5S)-1,5-dimethyl-8-azabicyclo[3.2.1]octan-3-yl]oxy}pyridazin-3-yl)-5-(1H-1,2,3-triazol-1-yl)pyridin-3-ol and 2-(6-{[(1S,3r,5R)-1,5-dimethyl-8-azabicyclo[3.2.1]octan-3-yl]oxy}pyridazin-3-yl)-5-(1H-1,2,3-triazol-1-yl)pyridin-3-ol [Compound 71]
20 | ≥ 7.00 | [2H]C([2H])([2H])n1cc(-c2cnc(-c3ccc(O[C@H]4C[C@@H](C)NC5(CC5)C4)nn3)c(O)c2)cn1 [Compound 82, 2-(6-{[(5R,7S)-5-methyl-4-azaspiro[2.5]octan-7-yl]oxy}pyridazin-3-yl)-5-[1-(^2H3)methyl-1H-pyrazol-4-yl]pyridin-3-ol]

Row | Molecule | pIC50
21 | 5-(7-fluoro-2-methyl-2H-indazol-5-yl)-2-{6-[(3R,5S)-3,4,5-trimethylpiperazin-1-yl]pyridazin-3-yl}pyridin-3-ol and 5-(7-fluoro-2-methyl-2H-indazol-5-yl)-2-{6-[(3S,5R)-3,4,5-trimethylpiperazin-1-yl]pyridazin-3-yl}pyridin-3-ol [Compound 91] | ≥ 7.00
22 | C[C@@H]1CN(c2ccc(-c3ncc(-c4ccc5ncnn5c4)cc3O)nn2)C[C@H](C)N1 [Compound 94, 2-{6-[(3R,5S)-3,5-dimethylpiperazin-1-yl]pyridazin-3-yl}-5-([1,2,4]triazolo[1,5-a]pyridin-6-yl)pyridin-3-ol and 2-{6-[(3S,5R)-3,5-dimethylpiperazin-1-yl]pyridazin-3-yl}-5-([1,2,4]triazolo[1,5-a]pyridin-6-yl)pyridin-3-ol] | 6.00 to 6.30
23 | C[C@@H]1CN(c2ccc(-c3ncc(-c4ccc5c(cnn5C)c4)cc3O)nn2)C[C@H](C)N1 [Compound 126, 2-{6-[(3R,5S)-3,5-dimethylpiperazin-1-yl]pyridazin-3-yl}-5-(1-methyl-1H-indazol-5-yl)pyridin-3-ol and 2-{6-[(3S,5R)-3,5-dimethylpiperazin-1-yl]pyridazin-3-yl}-5-(1-methyl-1H-indazol-5-yl)pyridin-3-ol] | 6.30 to 7.00
24 | C[C@@H]1CN(c2ccc(-c3ncc(/C=C/c4cnn(C)c4)cc3O)nn2)C[C@H](C)N1 [Compound 118, 2-{6-[(3R,5S)-3,5-dimethylpiperazin-1-yl]pyridazin-3-yl}-5-[(E)-2-(1-methyl-1H-pyrazol-4-yl)ethenyl]pyridin-3-ol and 2-{6-[(3S,5R)-3,5-dimethylpiperazin-1-yl]pyridazin-3-yl}-5-[(E)-2-(1-methyl-1H-pyrazol-4-yl)ethenyl]pyridin-3-ol] | ≥ 7.00
25 | CN(c1ccc(-c2ncc(-c3cn[nH]c3)cc2O)nn1)C1CC(C)(C)NC(C)(C)C1 [Compound 2, 2-{6-[methyl(2,2,6,6-tetramethylpiperidin-4-yl)amino]pyridazin-3-yl}-5-(1H-pyrazol-4-yl)pyridin-3-ol] | ≥ 7.00
